A word on the EC50: it is the concentration giving half of the maximal effect.

For assay [1], the system named is normal human PBMCs. The assay is described as follows: CellTiter-Glo cell viability. The class given is cell-based. The settings on record: PBMC, overnight, n = 6, ± SEM, read-out: Compound EC50, PBMCs (cell viability). The procedure:
Healthy PBMCs were obtained from volunteers. Mononuclear cells were purified using Mono-Poly resolving medium (MP Biomedicals, cat. 091698049) according to manufacturer's instructions. PBMCs were resuspended in cRPMI and kept on ice prior to use.
(§1) Cell viability was determined with the CellTiter-Glo® Luminescent Cell Viability Assay (Promega). Greiner 655083 had 100 μL cRPMI +/− 4×10^4 cells/well, and dose response curves of compounds ranged from 100 μM to 1.53 nM (1% DMSO). Wells with DMSO-only served as negative controls. Samples were incubated overnight, and the assay was completed according to the manufacturer's protocol. Plates were analyzed using a Victor^3V™ 1420 Multilabel Counter (Perkin Elmer).

Assay [2] relates to U937 cells. Nature of the assay: F-cAMP efflux assay in U937 cells (screen and dose response). The assay is classed as cell-based, human. The settings on record: screen at 10 μM, 51 hits retested in dose-response. As for the experimental part:
Cells were loaded with F-cAMP as described. Briefly, cells were resuspended in a hypertonic solution containing 10% polyethylene glycol 1000, 0.5 M sucrose, and 250 μM F-cAMP in cRPMI without FBS, incubated 10 min at room temperature, washed, and then resuspended in hypotonic solution (60% cRPMI, 40% sterile water) for 2 min at room temperature to complete F-cAMP loading. Cells were resuspended in cRPMI and equilibrated for 2 h under normal culture conditions.
Samples were evaluated using Accuri C6 or BD FACScan flow cytometers (Becton Dickinson (BD)).
Liquid handling was accomplished with a Biomek FX Multichannel system (Beckman-Coulter, Fullerton, CA, USA) and/or Biotek Multiflo system (Winooski, VT, USA). F-cAMP-loaded U937 cells (2000/well) were seeded into 384-well polypropylene plates (Greiner Bio-One 784201, Monroe, NC, USA). Cells were treated with compounds (10 μM final concentration) from the Prestwick Chemical Library (Illkirch, France) or […] Collection (MicroSource, Gaylordsville, CT, USA) delivered by pintool (V&P Scientific, San Diego, CA), at a final DMSO concentration of 1%. Plates were foil-sealed with AlumaSeal 384™ (Excel Scientific, Victorville, CA, USA), and incubated inverted overnight. Sample plates were analyzed by CyAn flow cytometers (Beckman-Coulter) configured with HyperCyt high-throughput auto-sampler systems (IntelliCyt, Albuquerque, NM, USA) using 488 nm excitation to assess FL-1 (530/40) MFI levels.
Data were analyzed with HyperView software (IntelliCyt) and time-gated to determine data from each well. Wells with ≥ 50 events were evaluated for FL-1 MFI values. Samples with MFI values ≥ 2 standard deviations above the plate mean negative control values were considered “hit” compounds.
To validate sample data and decrease the number of false-positive hits, compounds were assayed in a high-throughput dose response assay. Plates were set up as in the HTS, with the exception that the plate formats contained 10-well dose responses for each hit compound, at final concentrations ranging from 30 μM to 4 nM.
The dose response data were normalized for percent response based on sample FL-1 MFI values in comparison to untreated F-cAMP-loaded cells kept at 4°C overnight or at time = 0, and were fitted by GraphPad Prism 5 software (GraphPad Software, La Jolla, CA, USA) for sigmoidal dose response with constrained hill slope = 1.

For assay [3], the system named is primary B-ALL patient samples. The assay is described as follows: CellTiter-Glo cell viability of primary ALL patient samples ex vivo. The class given is cell-based, human. The settings on record: for EC50: Homo sapiens; for Cell viability vs. vehicle treated sample at lower concentrations: samples from patients no. 1 and no. 5. As for the experimental part: Bone marrow samples were acquired at diagnosis from pediatric B-ALL patients. Mononuclear cells were enriched by centrifugation in Ficoll-Paque (GE Healthcare, cat. 17-1440-02) and aliquoted for storage in liquid nitrogen until use. Samples were thawed in a 37°C water bath, resuspended in 20% FBS cRPMI, and centrifuged to remove freezing medium. Cells were resuspended in conditioned medium (DMEM, 10% FBS, 50 U/ml penicillin-streptomycin, 2 mM L-glutamine) from HS-5 stromal cell cultures.
as §1
For primary ALL patient samples, media consisted of 50% cRPMI, 50% conditioned DMEM from HS-5 stromal cell cultures and compounds. Cell densities ranged from 28,000-68,000 cells/well, and plates were foil-sealed prior to incubation.

For assay [4], the system named is B-ALL cell lines. Nature of the assay: CellTiter-Glo cell viability, all B-ALL cell lines together. The assay is classed as cell-based, human. The settings on record: Homo sapiens; mean of converged EC50s of six B-ALL lines; read-out: Compound EC50, Mean B-ALL (cell viability). As for the experimental part:
as §1

Assay [5] deals with U937 cells. The assay is described as follows: CellTiter-Glo cell viability. The assay is classed as cell-based. The settings on record: Homo sapiens, U-937; overnight, n = 8, ± SEM, fit top = 100, bottom = 0, hill slope = −1; read-out: Compound EC50, U937 (cell viability). As for the experimental part:
as §1
In general terms: Cellular ATP, detected with luciferase, serves as a proxy for viable cell number.

Assay [6] deals with Nalm 6. Nature of the assay: CellTiter-Glo cell viability. The class given is cell-based. To be noted: Homo sapiens, overnight, n = 6, ± SEM, read-out: Compound EC50, Nalm 6 (cell viability). The procedure:
as §1

The test system of assay [7] is Sup B15. Nature of the assay: CellTiter-Glo cell viability. The assay is classed as cell-based. To be noted: Homo sapiens, overnight, n = 6, ± SEM, read-out: Compound EC50, Sup B15 (cell viability). The procedure:
as §1

For assay [8], the system named is MHH Call 3. The assay is described as follows: CellTiter-Glo cell viability. The assay is classed as cell-based. To be noted: Homo sapiens; overnight, n = 6, ± SEM; read-out: Compound EC50, MHH Call 3 (cell viability). The procedure:
as §1

Assay [9] has as its system Reh. Nature of the assay: CellTiter-Glo cell viability. To be noted: Homo sapiens, overnight, n = 6, ± SEM, read-out: Compound EC50, Reh (cell viability). The assay is classed as cell-based. The procedure: as §1
The test system of assay [10] is RS4;11. The assay is described as follows: CellTiter-Glo cell viability. The assay is classed as cell-based. The settings on record: Homo sapiens, overnight, n = 6, ± SEM, read-out: Compound EC50, RS4;11 (cell viability). The procedure:
as §1

The test system of assay [11] is 697. Nature of the assay: CellTiter-Glo cell viability. To be noted: Homo sapiens; overnight, n = 6, ± SEM; read-out: Compound EC50, 697 (cell viability). The class given is cell-based. The procedure:
as §1

Details of assay [12]: method as in as printed in each cell. To be noted: previously reported; cited from earlier work.
Setting [13] is: mean of converged EC50s of six patient samples, read-out: Compound EC50 (Sample means), cell viability.
Setting [14] is: primary B-ALL sample, duplicate, ± SEM, read-out: Compound EC50 (Patient no. 1), cell viability.
Setting [15] is: primary B-ALL sample, duplicate, ± SEM, read-out: Compound EC50 (Patient no. 2), cell viability.
The mark [16] stands for this setting: primary B-ALL sample, duplicate, ± SEM, read-out: Compound EC50 (Patient no. 3), cell viability.
The mark [17] stands for this setting: primary B-ALL sample, duplicate, ± SEM, read-out: Compound EC50 (Patient no. 5), cell viability.
Where [18] appears, read: primary B-ALL sample, duplicate, ± SEM, read-out: Compound EC50 (Patient no. 4), cell viability.
The mark [19] stands for this setting: primary B-ALL sample, duplicate, ± SEM, read-out: Compound EC50 (Patient no. 6), cell viability.

Each structure is given as a SMILES string. Like-named read-outs stand apart in the source and are kept apart here.

For `O=C1C=C2C(=CCOC2O)O1` (stereo not shown) [Patulin], the EC50 was determined as 246 ± 181 µM in assay [1]; 7.36 µM in assay [3] (setting [13]); 1.79 ± 1.75 µM in assay [3] (setting [14]); 4.72 ± 2.1 µM in assay [3] (setting [15]); 0.4 ± 0.29 µM in assay [3] (setting [16]); 22.5 ± 11.8 µM in [3] (setting [17]). Also, the EC50 in assay [4] was 0.38 µM; in assay [5] it was 3.1 ± 2.22 µM; in [6] it was 0.07 ± 0.01 µM; in assay [7] it was 0.2 ± 0.12 µM; in assay [8], 0.53 ± 0.17 µM; in [9], 0.33 ± 0.13 µM. For the same compound, the EC50 in assay [10] stood at 1.01 ± 0.22 µM; in assay [11], 0.13 ± 0.04 µM. For the same compound, the “Outcome of screen for inhibitors of cAMP efflux after dose-response validation” value in assay [2] was “potentially active”. Further, the Anticancer effects entry in [12] is “↓ERK1/2 activation [52, 133]; ↑UPR[52, 133]; ↑intracellular [Ca2+] [134]”. Besides, the “Potential mechanism(s) of action” value in assay [12] is “↑ROS, DNA damage [57, 59, 132, 133, 135]; ↓glutathione [133, 135]”.

Turning to `Oc1c(I)cc(Cl)c2cccnc12` [Clioquinol], the 50% effective concentration (EC50) worked out at 87.8 ± 46.8 µM in [1]; 58.8 µM in [3] (setting [13]); 60.1 ± 53.5 µM in assay [3] (setting [14]); 158 ± 84.5 µM in assay [3] (setting [15]); 8.67 ± 4.84 µM in assay [3] (setting [16]); 48 ± 22.9 µM in [3] (setting [18]). For the same compound, the EC50 in assay [3] (setting [17]) amounted to 13.8 ± 5.23 µM; in [3] (setting [19]), 63.9 ± 41.1 µM; in assay [4], 35.2 µM; in [5], 40.6 ± 10.8 µM; in assay [6] it was 24.8 ± 12.1 µM; in [7], 15.4 ± 3.51 µM. Also, the EC50 amounted to 67.1 ± 22.9 µM in assay [8], 21.1 ± 4.61 µM in assay [9], 64.4 ± 36.6 µM in assay [10] and 18.6 ± 7.74 µM in assay [11]. The “Outcome of screen for inhibitors of cAMP efflux after dose-response validation” value in assay [2] was “potentially active”. Further, the “Cell viability vs. vehicle treated sample at lower concentrations” value in assay [3] is on record as “significant increase in cell viability”. Besides, in assay [12], the Anticancer effects entry was “↓cyclin D1 [110]; ↑p21, p27, p53 [106]”. In addition, the “Potential mechanism(s) of action” value in assay [12] was “↓NF-κB activation [108, 112]; ionophore/chelator activity [106, 108, 112]; proteasome inhibition [107, 109]”.

As for `C[C@H]1COC2=C1C(=O)C(=O)c1c2ccc2c1CCCC2(C)C` [Cryptotanshinone], the EC50 turned out to be 11.8 ± 3.11 µM in [1]; 19.1 µM in assay [3] (setting [13]); 12.9 ± 5.51 µM in [3] (setting [14]); 29.8 ± 8.97 µM in assay [3] (setting [15]); 14 ± 9.8 µM in assay [3] (setting [16]); 34.4 ± 5.79 µM in [3] (setting [18]). For the same compound, the EC50 in assay [3] (setting [17]) came out at 6.88 ± 2.89 µM; in assay [3] (setting [19]) it was 16.6 ± 5.55 µM; in assay [4], 67.7 µM; in [5] it was 11.8 ± 6.78 µM; in [6] it was 70.2 ± 29.9 µM; in [7], 29.2 ± 7.58 µM. Also, the EC50 in [8] is 126 ± 35.9 µM; in assay [9] it was 105 ± 14.6 µM; in assay [10], 8.36 ± 5.84 µM; in assay [11], 67.1 ± 31.8 µM. Besides, the “Outcome of screen for inhibitors of cAMP efflux after dose-response validation” value in assay [2] is on record as “potentially active”. Besides, the Anticancer effects result in [12] is “↓cyclin D1, Bcl-2 [47, 115, 116]; ↑p53, Chk1, Chk2 [120]”. In addition, the “Potential mechanism(s) of action” value in assay [12] is “↓mTOR, STAT3 signaling [116, 117]; ↓eIF-4E [47]”.

With `C=C1C(=O)O[C@H]2[C@H]1CC/C(C)=C/CC[C@@]1(C)O[C@@H]21` [Parthenolide], the EC50 in assay [1] is 56 ± 23.3 µM; in [3] (setting [13]) it was 3.15 µM; in assay [3] (setting [14]) it was 4.72 ± 3.71 µM; in [3] (setting [15]), 3.65 ± 1.73 µM; in [3] (setting [16]) it was 3.17 ± 1.44 µM; in assay [3] (setting [18]) it was 4.13 ± 1.92 µM. Further, the EC50 was 0.92 ± 0.58 µM in [3] (setting [17]); 2.31 ± 0.78 µM in [3] (setting [19]); 1.77 µM in assay [4]; 2.86 ± 1.55 µM in [5]; 0.72 ± 0.23 µM in assay [6]; 1.54 ± 0.36 µM in assay [7]. For the same compound, the concentration giving a half-maximal response (EC50) was 1.97 ± 0.59 µM in assay [8], 2.19 ± 1.34 µM in assay [9], 3.07 ± 1 µM in assay [10] and 1.13 ± 0.31 µM in assay [11]. In addition, the “Outcome of screen for inhibitors of cAMP efflux after dose-response validation” value in assay [2] is reported as “potentially active”. Also, the “Cell viability vs. vehicle treated sample at lower concentrations” value in assay [3] is recorded as “significant increase in cell viability”. Also, the Anticancer effects entry in assay [12] is “↓VEGF expression & metastasis [61, 124, 125]; ↑p53 activation [48]; ↓cyclin D1 [61, 122]”. In addition, the “Potential mechanism(s) of action” value in assay [12] is “↓NF-κB & AP-1 activation [48, 61, 124, 126, 127]; ↓MAPK/ERK signaling [126, 127]; ↓STAT signaling [128]; ↑ROS[48, 65, 128]”.

The values above are taken from publication PMC5085131, “Cyclic AMP efflux inhibitors as potential therapeutic agents for leukemia” (Oncotarget, 2016).
